From EP2818471A1, “Nitrogen bicyclic compounds as inhibitors for Scyl1 and Grk5” (Max-Planck-Gesellschaft zur Förderung der Wissenschaften …, priority 2013, dated 2014)

These molecules were tested on beta-TC6 cells (assay: Insulin HTRF assay, relative activity Ar normalized to sunitinib). Conditions: Mus musculus, normalized to positive control sunitinib (5 µM = 100%), Table 10.
Type: cell-based
How it was run: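 Relative activity Ar was scaled between 0% and 100% controls, with sunitinib at 5 µM f.c. as reference. Insulin released by beta-TC6 cells was quantified by sandwich HTRF (Eu-cryptate/XL665 antibodies, 120 min RT). Cells had been seeded 24 or 48 h, then treated 2–4 h at 37°C in induction buffer, 0.5% DMSO.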
Work on `Clc1ccc(-c2cnc3cnc(-c4cccs4)cn23)cc1` [compound 349, 3-(4-chlorophenyl)-6-(2-thienyl)imidazo[1,2-a]pyrazine] yielded an Emax of 20 to 50%. In the case of `CN(C)CCCNC(=O)c1ccc(-c2cn3c(-c4ccc5c(ccn5C)c4)cnc3cn2)cc1` [compound 398, N-[3-(dimethylamino)propyl]-4-[3-(1-methylindol-5-yl)imidazo[1,2-a]pyrazin-6-yl]benzamide], the Emax is reported as 20 to 50%. Molecule `Clc1cccc(-c2nnc3ccc(-c4cncc5ccccc45)cn23)c1` [compound 205, 4-[3-(3-chlorophenyl)-[1,2,4]triazolo[4,3-a]pyridin-6-yl]isoquinoline] has an Emax of 50 to 100%. In the case of `c1cncc(-c2cnc3cnc(-c4ccc(N5CCOCC5)cc4)cn23)c1` [compound 315, 4-[4-[3-(3-pyridyl)imidazo[1,2-a]pyrazin-6-yl]phenyl]morpholine], the Emax is reported as 20 to 50%. Work on `OCc1ccc(-c2cn3c(-c4cccc(Cl)c4)cnc3cn2)cc1` [compound 360, [4-[3-(3-chlorophenyl)imidazo[1,2-a]pyrazin-6-yl]phenyl]methanol] yielded an Emax of 20 to 50%. Molecule `CNC(=O)c1cccc(-c2ccc3nnc(-c4ccc5c(c4)OCO5)n3c2)c1` [compound 175, 3-[3-(1,3-benzodioxol-5-yl)-[1,2,4]triazolo[4,3-a]pyridin-6-yl]-N-methyl-benzamide] has an Emax of 20 to 50%. For `CC(=O)c1cccc(-c2cnc3cnc(-c4cccc(F)c4)cn23)c1` [compound 410, 1-[3-[6-(3-fluorophenyl)imidazo[1,2-a]pyrazin-3-yl]phenyl]ethanone], the Emax was 20 to 50%. `COc1ccc(-c2cnc3ccc(NCC4CC4)nn23)cn1` [compound 51, N-(cyclopropylmethyl)-3-(6-methoxy-3-pyridyl)imidazo[1,2-b]pyridazin-6-amine] showed an Emax of 10 to 20%. `COc1cccc(C#Cc2ccc3nnc(-c4cccc(OC(F)(F)F)c4)n3c2)c1` [compound 194, 6-[2-(3-methoxyphenyl)ethynyl]-3-[3-(trifluoromethoxy)phenyl]-[1,2,4]triazolo[4,3-a]pyridine] gave an Emax of 20 to 50%. `COc1ccc(-c2ccc3nnc(-c4ccccc4C)n3c2)cc1OC` [compound 223, 6-(3,4-dimethoxyphenyl)-3-(o-tolyl)-[1,2,4]triazolo[4,3-a]pyridine] gave an Emax of 50 to 100%. `Oc1cccc(-c2cnc3cnc(-c4cc5ccccc5s4)cn23)c1` [compound 364, 3-[6-(benzothiophen-2-yl)imidazo[1,2-a]pyrazin-3-yl]phenol] was tested, and the Emax was 50 to 100%. Molecule `CC(C)Oc1cccc(-c2cn3c(-c4ccc5c(c4)OCO5)cnc3cn2)c1` [compound 310, 3-(1,3-benzodioxol-5-yl)-6-(3-isopropoxyphenyl)imidazo[1,2-a]pyrazine] has an Emax of 50 to 100%. In the case of `Oc1cccc(-c2nnc3ccc(-c4ccc(F)cc4)cn23)c1` [compound 208, 3-[6-(4-fluorophenyl)-[1,2,4]triazolo[4,3-a]pyridin-3-yl]phenol], the Emax is reported as 50 to 100%. For `COc1ccc(-c2ccc3ncc(-c4cccc(Cl)c4)n3n2)cc1OC` [compound 124, 3-(3-chlorophenyl)-6-(3,4-dimethoxyphenyl)imidazo[1,2-b]pyridazine], the Emax was 20 to 50%. Molecule `Fc1cccc(-c2cn3c(-c4ccccc4)cnc3cn2)c1` [compound 297, 6-(3-fluorophenyl)-3-phenyl-imidazo[1,2-a]pyrazine] has an Emax of 20 to 50%. For `Oc1ccc(-c2cnc3cnc(-c4ccc(Cl)cc4)cn23)cc1` [compound 324, 4-[6-(4-chlorophenyl)imidazo[1,2-a]pyrazin-3-yl]phenol], the Emax was 20 to 50%. Work on `COc1ccc(-c2ccc3nnc(-c4ccc(O)c(OC)c4)n3c2)cn1` [compound 216, 2-methoxy-4-[6-(6-methoxy-3-pyridyl)-[1,2,4]triazolo[4,3-a]pyridin-3-yl]phenol] yielded an Emax of 50 to 100%. `CS(=O)(=O)Nc1cccc(-c2cn3c(-c4cccs4)cnc3cn2)c1` [compound 425, N-[3-[3-(2-thienyl)imidazo[1,2-a]pyrazin-6-yl]phenyl]methanesulfonamide] was tested, and the Emax was 20 to 50%. Molecule `COc1cccc(CC(=O)Nc2cnc3cnc(-c4ccc5[nH]ccc5c4)cn23)c1` [compound 254, N-[6-(1H-indol-5-yl)imidazo[1,2-a]pyrazin-3-yl]-2-(3-methoxyphenyl)acetamide] has an Emax of 10 to 20%. `Nc1ccc(-c2cn3c(-c4ccc5c(c4)OCO5)cnc3cn2)cn1` [compound 309, 5-[3-(1,3-benzodioxol-5-yl)imidazo[1,2-a]pyrazin-6-yl]pyridin-2-amine] gave an Emax of 10 to 20%. Molecule `OCc1cccc(-c2cnc3cnc(-c4cccs4)cn23)c1` [compound 379, [3-[6-(2-thienyl)imidazo[1,2-a]pyrazin-3-yl]phenyl]methanol] has an Emax of 20 to 50%. Work on `O=C(NCCO)c1ccc(-c2cnc3cccnn23)cc1` [compound 78, N-(2-hydroxyethyl)-4-imidazo[1,2-b]pyridazin-3-yl-benzamide] yielded an Emax of 10 to 20%. With `Clc1cccc(-c2ccc3nnc(-c4ccc5c(c4)OCO5)n3c2)c1` [compound 170, 3-(1,3-benzodioxol-5-yl)-6-(3-chlorophenyl)-[1,2,4]triazolo[4,3-a]pyridine] the Emax was 20 to 50%. Molecule `Fc1cccc(-c2ccc3ncc(-c4ccc5c(c4)OCO5)n3n2)c1` [compound 104, 3-(1,3-benzodioxol-5-yl)-6-(3-fluorophenyl)imidazo[1,2-b]pyridazine] has an Emax of 20 to 50%. Work on `COc1ccc(CNc2ccc3ncc(-c4ccc(OC)cc4OC)n3n2)cc1` [compound 39, 3-(2,4-dimethoxyphenyl)-N-[(4-methoxyphenyl)methyl]imidazo[1,2-b]pyridazin-6-amine] yielded an Emax of 10 to 20%. Molecule `N#Cc1ccc(-c2cnc3cnc(-c4ccsc4)cn23)cc1` [compound 336, 4-[6-(3-thienyl)imidazo[1,2-a]pyrazin-3-yl]benzonitrile] has an Emax of 20 to 50%. `Clc1cccc(-c2nnc3ccc(-c4cccnc4)cn23)c1` [compound 200, 3-(3-chlorophenyl)-6-(3-pyridyl)-[1,2,4]triazolo[4,3-a]pyridine] showed an Emax of 50 to 100%. With `CN(C)CCCNC(=O)c1ccc(-c2ccc3nnc(-c4cccc(C(F)(F)F)c4)n3c2)cc1` [compound 211, N-[3-(dimethylamino)propyl]-4-[3-[3-(trifluoromethyl)phenyl]-[1,2,4]triazolo[4,3-a]pyridin-6-yl]benzamide] the Emax was 20 to 50%. `Nc1ccc(-c2cnc3ccc(Cc4ccccc4)nn23)cn1` [compound 161, 5-(6-benzylimidazo[1,2-b]pyridazin-3-yl)pyridin-2-amine] was tested, and the Emax was 20 to 50%. Molecule `OCc1ccc(-c2cnc3cnc(-c4ccco4)cn23)cc1` [compound 373, [4-[6-(2-furyl)imidazo[1,2-a]pyrazin-3-yl]phenyl]methanol] has an Emax of 20 to 50%. `CC(=O)c1cccc(-c2cn3c(NC(=O)CC4CC4)cnc3cn2)c1` [compound 274, N-[6-(3-acetylphenyl)imidazo[1,2-a]pyrazin-3-yl]-2-cyclopropyl-acetamide] gave an Emax of 20 to 50%. `CN(C)c1ccc(-c2cnc3cnc(-c4ccc(O)cc4)cn23)cc1` [compound 284, 4-[3-(4-dimethylaminophenyl)imidazo[1,2-a]pyrazin-6-yl]phenol] gave an Emax of 50 to 100%. With `COc1ccc(-c2nnc3ccc(-c4cccc(N(C)C)c4)cn23)cc1OC` [compound 185, 3-[3-(3,4-dimethoxyphenyl)-[1,2,4]triazolo[4,3-a]pyridin-6-yl]-N,N-dimethyl-aniline] the Emax was 50 to 100%. `c1cncc(CCNc2ccc3ncc(-c4ccc(N5CCOCC5)cc4)n3n2)c1` [compound 24, 3-(4-morpholinophenyl)-N-[2-(3-pyridyl)ethyl]imidazo[1,2-b]pyridazin-6-amine] gave an Emax of 50 to 100%. Work on `Clc1ccc(-c2cnc3cnc(-c4ccsc4)cn23)cc1` [compound 348, 3-(4-chlorophenyl)-6-(3-thienyl)imidazo[1,2-a]pyrazine] yielded an Emax of 50 to 100%. With `CCOc1cccc(-c2cn3c(-c4ccc(O)c(OC)c4)cnc3cn2)c1` [compound 395, 4-[6-(3-ethoxyphenyl)imidazo[1,2-a]pyrazin-3-yl]-2-methoxy-phenol] the Emax was 50 to 100%. `OCc1cccc(-c2cnc3cnc(-c4ccccc4)cn23)c1` [compound 376, [3-(6-phenylimidazo[1,2-a]pyrazin-3-yl)phenyl]methanol] gave an Emax of 20 to 50%. With `O=C(Cc1ccsc1)Nc1cnc2cnc(-c3ccccc3F)cn12` [compound 278, N-[6-(2-fluorophenyl)imidazo[1,2-a]pyrazin-3-yl]-2-(3-thienyl)acetamide] the Emax was 10 to 20%. With `CS(=O)(=O)Nc1cccc(-c2cn3c(-c4ccc(Oc5ccccc5)cc4)cnc3cn2)c1` [compound 403, N-[3-[3-(4-phenoxyphenyl)imidazo[1,2-a]pyrazin-6-yl]phenyl]methanesulfonamide] the Emax was 20 to 50%. `OCc1cccc(-c2ccc3nnc(-c4ccccn4)n3c2)c1` [compound 248, [3-[3-(2-pyridyl)-[1,2,4]triazolo[4,3-a]pyridin-6-yl]phenyl]methanol] was tested, and the Emax was 20 to 50%. `CN(C)c1ccc(-c2cnc3cnc(-c4ccccc4Cl)cn23)cc1` [compound 294, 4-[6-(2-chlorophenyl)imidazo[1,2-a]pyrazin-3-yl]-N,N-dimethyl-aniline] showed an Emax of 20 to 50%. For `COc1cc(-c2cn3c(-c4ccc5ncccc5c4)cnc3cn2)ccc1O` [compound 441, 2-methoxy-4-[3-(6-quinolyl)imidazo[1,2-a]pyrazin-6-yl]phenol], the Emax was 20 to 50%. `CC(=O)Nc1ccc(-c2cnc3ccc(-c4ccc(S(C)(=O)=O)cc4)nn23)cc1` [compound 149, N-[4-[6-(4-methylsulfonylphenyl)imidazo[1,2-b]pyridazin-3-yl]phenyl]acetamide] was tested, and the Emax was 10 to 20%. `COc1cc(-c2cnc3cnc(-c4cnn(C)c4)cn23)ccc1O` [compound 397, 2-methoxy-4-[6-(1-methylpyrazol-4-yl)imidazo[1,2-a]pyrazin-3-yl]phenol] gave an Emax of 50 to 100%. `CC(C)Oc1cccc(-c2cn3c(-c4cccs4)cnc3cn2)c1` [compound 428, 6-(3-isopropoxyphenyl)-3-(2-thienyl)imidazo[1,2-a]pyrazine] showed an Emax of 20 to 50%. In the case of `Nc1cccc(-c2cn3c(NC(=O)Cc4ccc(F)c(F)c4)cnc3cn2)c1` [compound 277, N-[6-(3-aminophenyl)imidazo[1,2-a]pyrazin-3-yl]-2-(3,4-difluorophenyl)acetamide], the Emax is reported as 10 to 20%.
